Several values for one entry are separate records, joined by “and”; a condition that tells them apart may be missing. Equal values may be shown once. Read-outs that look alike come from different tables or passages of the source.

For assay [1], the system named is peroxidase. The experiment in a line: Peroxidase assay in saliva (Amplex Red). The assay is classed as biochemical. As for the experimental part:
To determine the effect of various GRAS compounds as inhibitors of peroxidase activity, a standard assay using Amplex® Red (Life Technologies), which releases a fluorescent oxidation product.
The test compounds, such as GRAS materials or cocktails of same, were prepared at a concentration of 500 ppm in distilled water. For the assay, 50 μl samples of test compounds were mixed with 20-30 μl of saliva (either “pooled” or “unpooled”) prior to the addition of Amplex® Red. […] Reactions were allowed to run for 30 minutes during these assays.

Assay [2] addresses T1, α-amylase (Homo sapiens, UniProt P0DUB6).
T1 sequence (P0DUB6 16-511): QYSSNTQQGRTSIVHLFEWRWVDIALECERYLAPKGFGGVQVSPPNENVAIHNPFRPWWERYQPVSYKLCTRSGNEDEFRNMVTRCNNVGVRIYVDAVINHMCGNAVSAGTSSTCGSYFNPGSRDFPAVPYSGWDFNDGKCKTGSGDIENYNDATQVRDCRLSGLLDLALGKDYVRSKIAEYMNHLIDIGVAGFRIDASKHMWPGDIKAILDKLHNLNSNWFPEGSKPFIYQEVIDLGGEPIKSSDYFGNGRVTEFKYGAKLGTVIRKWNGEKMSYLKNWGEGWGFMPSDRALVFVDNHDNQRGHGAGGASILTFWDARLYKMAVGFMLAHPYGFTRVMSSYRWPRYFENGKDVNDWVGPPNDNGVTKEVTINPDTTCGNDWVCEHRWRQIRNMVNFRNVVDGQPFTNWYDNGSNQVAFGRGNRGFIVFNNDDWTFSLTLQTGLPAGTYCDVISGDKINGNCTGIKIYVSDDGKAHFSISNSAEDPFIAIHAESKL
Description: α-Amylase inhibition saliva screening (chromogenic substrate, 405 nm). The assay is classed as biochemical. Particulars: for Ave (absorbance at 405 nm): average of 4 readings; for absorbance at 405 nm, single reading: test compound prepared at 5,000 ppm, 37° C. From the text: Further details of these five compounds may also be seen in Table 4.

Assay [3] relates to protease. The following applies: natural protease inhibitors; cited from earlier work.
The mark [4] stands for this setting: 500 ppm, pooled and unpooled saliva controls, 30 minutes, FIGS. 26-29.

With `O=C(O)c1ccccc1` [CDI #16, Benzoic acid], the peroxidase inhibition result in assay [1] is recorded as “showed significant peroxidase inhibition capabilities”.

As for `Cn1c(=O)c2c(ncn2C)n(C)c1=O` [CDI #33, Caffeine], the peroxidase inhibition result in assay [1] (setting [4]) is on record as “showed significant peroxidase inhibition capabilities”.

Regarding `COc1ccc(O)c(C(C)(C)C)c1` [CDI-039, 3-tert--butyl-hydroxyanisole], the peroxidase inhibition result in assay [1] (setting [4]) is “showed significant peroxidase inhibition capabilities”.

For the molecule “Aluminum potassium sulfate dodecahydrate [CDI-42]”, the “Ave (absorbance at 405 nm)” value in assay [2] (Time 0 min) came out at 0.92; in assay [2] (Time 5 min), 1.85; in assay [2] (Time 15 min), 2.29. The “absorbance at 405 nm, single reading” value is 0.80 and 1.13 and 0.90 and 0.84 in assay [2] (Time 0 min); 1.65 and 2.15 and 1.80 and 1.81 in assay [2] (Time 5 min); 2.37 and 2.38 and 2.25 and 2.17 in assay [2] (Time 15 min). Further, the peroxidase inhibition entry in assay [1] (setting [4]) is recorded as “showed significant peroxidase inhibition capabilities”.

With Aluminum sulfate hydrate [CDI-34], the entries for the “Ave (absorbance at 405 nm)” value in assay [2] (Time 0 min), in assay [2] (Time 5 min) and in assay [2] (Time 15 min) were 0.40, 0.50 and 0.56, respectively. In addition, the “absorbance at 405 nm, single reading” value in assay [2] (Time 0 min, sulfate hydrate) is 0.40 and 0.36 and 0.45; in assay [2] (Time 5 min, sulfate hydrate), 0.49 and 0.50 and 0.52; in assay [2] (Time 15 min, sulfate hydrate) it was 0.53 and 0.61 and 0.54 and 0.56.

B1: Soybeans: primary soybean protease inhibitor, 20.7-22.3 kDa (protein, UniProt P01070 25-205, looked up)
Trypsin inhibitor A: DFVLDNEGNPLENGGTYYILSDITAFGGIRAAPTGNERCPLTVVQSRNELDKGIGTIISSPYRIRFIAEGHPLSLKFDSFAVIMLCVGIPTEWSVVEDLPEGPAVKIGENKDAMDGWFRLERVSDDEFNNYKLVFCPQQAEDDKCGDIGISIDHDDGTRRLVVSKNKPLVVQFQKLDKESL
On to B1, for which the Inhibitory power in assay [3] was 1.2 times times weight.

(Values after US20110195427A1, “SYSTEMS AND METHODS FOR DETECTING PREGNANCY” (priority 2010, published 2011).)
